Where “and” joins values, the source holds several entries; their conditions need not be identical. Identical values can stand only once. Inconclusive results and toxic doses are left out.

Our source for the T/C values is PubChem BioAssay AID258 (DTP/NCI, 2004).

The experiment has as its system CD2F1 mice, L1210 leukemia sc, survival T/C. The experiment in a line: NCI In Vivo Anticancer Drug Screen. Data for tumor model L1210 Leukemia (subcutaneous) in CD2F1 (CDF1) mice. To be noted: endpoint: median survival time, higher = longer survival. Put shortly:
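Antitumor activity is scored in tumor-bearing mice by comparing survival or tumor size of treated animals against vehicle-treated controls, reported as T/C.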

Where [1] appears, read: dose: 108.0 mg/kg/injection, schedule: Q01DX Z (sc), vehicle: saline.
The mark [2] stands for this setting: dose: 180.0 mg/kg/injection, schedule: Q01DX Z (sc), vehicle: saline.
Where [3] appears, read: dose: 300.0 mg/kg/injection, schedule: Q01DX Z (sc), vehicle: methylcellulose (MC).

As to `CC(=O)Nc1ccc2nc3ccc(NC(C)=O)cc3[n+](-c3ccccc3)c2c1`, the T/C was 90 % of control (dose: 8.4 mg/kg/injection, schedule: Q01DX Z (ip), vehicle: saline); 95 % of control (dose: 14.0 mg/kg/injection, schedule: Q01DX Z (ip), vehicle: saline); 100 % of control (dose: 14.0 mg/kg/injection, schedule: Q01DX Z (sc), vehicle: saline); 90 % of control (dose: 23.0 mg/kg/injection, schedule: Q01DX Z (ip), vehicle: saline); 100 % of control (dose: 23.0 mg/kg/injection, schedule: Q01DX Z (sc), vehicle: saline); 100 % of control (dose: 39.0 mg/kg/injection, schedule: Q01DX Z (ip), vehicle: saline). Besides, the T/C (dose: 39.0 mg/kg/injection, schedule: Q01DX Z (sc), vehicle: saline) is 100 % of control; the T/C (dose: 65.0 mg/kg/injection, schedule: Q01DX Z (ip), vehicle: saline) is 100 % of control; the T/C (dose: 65.0 mg/kg/injection, schedule: Q01DX Z (sc), vehicle: saline) is 105 % of control; the T/C (dose: 108.0 mg/kg/injection, schedule: Q01DX Z (ip), vehicle: saline) was 100 % of control; the T/C under setting [1] is 100 % of control; the T/C under setting [2] is 110 % of control.
Regarding `C[C@]12CCC(=O)C=C1CC[C@@H]1[C@@H]2[C@@H](O)C[C@@]2(C)[C@H]1CC[C@]2(O)C(=O)CO`, the T/C under setting [3] is 115 % of control.
`S=c1nc[nH]c2c1ncn2C1CCCC1`: the T/C was 100 % of control (dose: 108.0 mg/kg/injection, schedule: Q01DX Z (sc), vehicle: methylcellulose (MC)); 100 % of control (dose: 180.0 mg/kg/injection, schedule: Q01DX Z (sc), vehicle: methylcellulose (MC)); 100 % of control under setting [3]; 100 % of control (dose: 500.0 mg/kg/injection, schedule: Q01DX Z (sc), vehicle: methylcellulose (MC)); 100 % of control (dose: 833.0 mg/kg/injection, schedule: Q01DX Z (sc), vehicle: methylcellulose (MC)); 100 % of control (dose: 1388.0 mg/kg/injection, schedule: Q01DX Z (sc), vehicle: methylcellulose (MC)).
Consider `O=C1c2c(O)ccc(O)c2C(=O)c2c(NCCNCCO)ccc(NCCNCCO)c21`, for which the T/C is 105 % of control and 114 % of control and 116 % of control (dose: 0.5 mg/kg/injection, schedule: Q01DX009 (ip), vehicle: saline with Tween-80); 114 % of control (dose: 1.0 mg/kg/injection, schedule: Q01DX009 (ip), vehicle: saline with Tween-80); 168 % of control (dose: 2.0 mg/kg/injection, schedule: Q01DX009 (ip), vehicle: saline with Tween-80).
On to `CO[C@H](/C(C)=C/C=C/C(C)=C/c1coc(C)n1)[C@H](C)[C@H]1C[C@@H](O)[C@@]2(C)O[C@H]2/C=C/[C@@H](C)[C@@H]2C[C@@H](CC(=O)O2)C[C@H]2O[C@@H]2C(=O)O1`, for which the T/C by setting is: (dose: 0.25 mg/kg/injection, schedule: Q01DX009 (ip), vehicle: Klucel (hydroxypropylcellulose) (HPC)) 107 % of control; (dose: 1.0 mg/kg/injection, schedule: Q01DX009 (ip), vehicle: Klucel (hydroxypropylcellulose) (HPC)) 119 % of control.
For `O=C(Nc1cccc(C2=NCCN2)c1)c1ccc(-c2ccc(C(=O)Nc3cccc(C4=NCCN4)c3)cc2)cc1`, the T/C (dose: 23.0 mg/kg/injection, schedule: Q01DX Z (sc), vehicle: water) was 110 % of control; the T/C (dose: 39.0 mg/kg/injection, schedule: Q01DX Z (sc), vehicle: water) is 105 % of control; the T/C (dose: 65.0 mg/kg/injection, schedule: Q01DX Z (sc), vehicle: water) was 100 % of control; the T/C (dose: 108.0 mg/kg/injection, schedule: Q01DX Z (sc), vehicle: water) was 105 % of control; the T/C (dose: 180.0 mg/kg/injection, schedule: Q01DX Z (sc), vehicle: water) was 100 % of control.
Take `CC1CCC(NC(=O)N(CCCl)N=O)CC1` (configuration not stated): the T/C was 96 % of control (dose: 0.25 mg/kg/injection, schedule: Q01DX009 (ip), vehicle: saline + alcohol); 112 % of control (dose: 0.5 mg/kg/injection, schedule: Q01DX009 (ip), vehicle: saline + alcohol); 122 % of control (dose: 1.0 mg/kg/injection, schedule: Q01DX009 (ip), vehicle: saline + alcohol); 153 % of control and 239 % of control (dose: 4.0 mg/kg/injection, schedule: Q01DX009 (ip), vehicle: saline + alcohol); 107 % of control (dose: 4.0 mg/kg/injection, schedule: Q01DX009 (sc), vehicle: saline + alcohol); 225 % of control (dose: 5.3 mg/kg/injection, schedule: Q01DX009 (sc), vehicle: saline + alcohol). Also, the T/C by setting is: (dose: 8.0 mg/kg/injection, schedule: Q01DX009 (ip), vehicle: saline + alcohol) 163 % of control and 267 % of control; (dose: 8.0 mg/kg/injection, schedule: Q01DX009 (sc), vehicle: saline + alcohol) 120 % of control and 246 % of control; (dose: 10.7 mg/kg/injection, schedule: Q01DX009 (ip), vehicle: saline + alcohol) 745 % of control; (dose: 12.0 mg/kg/injection, schedule: Q01DX009 (sc), vehicle: saline + alcohol) 250 % of control; (dose: 16.0 mg/kg/injection, schedule: Q01DX009 (ip), vehicle: saline + alcohol) 200 % of control and 230 % of control; (dose: 16.0 mg/kg/injection, schedule: Q01DX009 (sc), vehicle: saline + alcohol) 198 % of control and 209 % of control. The T/C (dose: 21.4 mg/kg/injection, schedule: Q01DX009 (sc), vehicle: saline + alcohol) was 400 % of control; the T/C (dose: 24.0 mg/kg/injection, schedule: Q01DX009 (ip), vehicle: saline + alcohol) is 153 % of control; the T/C (dose: 24.0 mg/kg/injection, schedule: Q01DX009 (sc), vehicle: saline + alcohol) is 123 % of control; the T/C (dose: 32.0 mg/kg/injection, schedule: Q01DX009 (sc), vehicle: saline + alcohol) was 162 % of control and 203 % of control; the T/C (dose: 48.0 mg/kg/injection, schedule: Q01DX009 (ip), vehicle: saline + alcohol) was 90 % of control; the T/C (dose: 48.0 mg/kg/injection, schedule: Q01DX009 (sc), vehicle: saline + alcohol) is 189 % of control. Besides, the T/C (dose: 64.0 mg/kg/injection, schedule: Q01DX009 (ip), vehicle: saline + alcohol) was 150 % of control; the T/C (dose: 64.0 mg/kg/injection, schedule: Q01DX009 (sc), vehicle: saline + alcohol) is 122 % of control; the T/C (dose: 256.0 mg/kg/injection, schedule: Q01DX009 (sc), vehicle: saline + alcohol) was 120 % of control.
As for `[Cl][Pt+2][Cl].[NH-]CC1(C[NH-])CCC1`, under “dose: 3.12 mg/kg/injection, schedule: Q01DX009 (ip), vehicle: Klucel (hydroxypropylcellulose) (HPC)”, the T/C was 158 % of control.
As to `CCN=c1cc2oc3cc(NCC)c(C)cc3c(-c3ccccc3C(=O)OCC)c-2cc1C`, the T/C by setting is: (dose: 0.63 mg/kg/injection, schedule: Q01DX009 (ip), vehicle: water) 102 % of control; (dose: 0.63 mg/kg/injection, schedule: Q01DX009 (sc), vehicle: water) 100 % of control; (dose: 1.25 mg/kg/injection, schedule: Q01DX009 (ip), vehicle: water) 96 % of control; (dose: 1.25 mg/kg/injection, schedule: Q01DX009 (sc), vehicle: water) 104 % of control and 97 % of control; (dose: 2.5 mg/kg/injection, schedule: Q01DX009 (sc), vehicle: water) 105 % of control; (dose: 5.0 mg/kg/injection, schedule: Q01DX009 (sc), vehicle: water) 104 % of control.
For the molecule `Nc1cc(=O)[nH][nH]1`, the T/C reads like this: under setting [1], 105 % of control; under setting [2], 100 % of control; (dose: 300.0 mg/kg/injection, schedule: Q01DX Z (sc), vehicle: saline) 100 % of control; (dose: 500.0 mg/kg/injection, schedule: Q01DX Z (sc), vehicle: saline) 100 % of control; (dose: 833.0 mg/kg/injection, schedule: Q01DX Z (sc), vehicle: saline) 100 % of control.
Turning to `CCOC1=C(N2CC2)C(=O)C(OCC)=C(N2CC2)C1=O`, the T/C is 113 % of control (dose: 3.0 mg/kg/injection, schedule: Q01DX Z (sc), vehicle: carboxymethylcellulose (CMC)); 118 % of control (dose: 5.0 mg/kg/injection, schedule: Q01DX Z (sc), vehicle: carboxymethylcellulose (CMC)); 113 % of control (dose: 8.4 mg/kg/injection, schedule: Q01DX Z (sc), vehicle: carboxymethylcellulose (CMC)); 109 % of control (dose: 14.0 mg/kg/injection, schedule: Q01DX Z (sc), vehicle: carboxymethylcellulose (CMC)); 100 % of control (dose: 23.0 mg/kg/injection, schedule: Q01DX Z (sc), vehicle: carboxymethylcellulose (CMC)).
